# Measurements as given in patent US8677934B2 (Yissum Research Development Company of the Hebrew …, priority 2007, dated 2014).
# Positions of bridges follow the written chain, without caps; N, C: chain ends. Residues, ends and D or L forms follow the SMILES beside them.
# Assays:
# [1] = system: D. melanogaster females; assay: Receptivity assay, ectopic expression in unmated females by heat-inducible GAL4 driver (hsp70-GAL4); assay type: in vivo, Drosophila melanogaster; conditions: for duration of rejection behavior (kicking and extruding ovipositor): days examined
# Protocol: Heat shock. Transgenic unmated females carrying the mutated T-SP (hsp70-GAL4; UAS-T-SPX) were placed in empty vials supplemented with moisture filter paper. Files were placed in water bath and heated gradually from 25 to 37° C. Flies were kept at this temperature for 1 hr thereafter returned to room temperature for one hour for recovery. Recovered heat-shocked flies were placed in food vials and kept at 25° C. until used.
# (§1) Receptivity assay. Single unmated females of each homogenous UAS-T-SP transgene (see also Table 2) were placed in a food vial with single unmated 3-5-day-old males of the same UAS-T-SP transgene. Two parameters were monitored for one hour: (i) Receptivity rate—the number of female that mated; (ii) courtship behavior—whether or not female performed a rejection behaviors (kicking and extruding their ovipositor). […] For that a group of 10 females were isolated from each group and their behavior was inspected. […] These females will be exposed in the next day to newly unmated 3-5-day-old males (see section developing bioassay for additional details).
# To examine the effect of the modified T-SP on female receptivity we first developed a sensitive bioassay that provided optimal conditions to test the transgenes. […] We examined two independent lines to determine the effect of exposure to one or two males and whether a window of one hour would be sensitive enough to detect changes in female behavior. Four-day-old unmated females were placed with one or two males in a fresh food vial and their behavior was documented. Mated females were separated from males and left in the food vials. Twenty four hours later the females were re-exposed to unmated 3-day-old males and inspected for mating encounter and courting behavior for 1 hour. […] About 50% of the females re-mated after 4 to 5 days (FIGS. 7A-B).
# Since a change in the willingness of the female to mate is expressed in their behavior, we next developed a qualitative behavioral bioassay. Mated females reject the courting males by extruding their ovipositor toward the male and/or by kicking the courting male. Theses behaviors are not seen in unmated females. We set up a system in which we inspected whether or not the female kicks the male and extrudes her ovipositor toward the male (see material and methods), both of which are predictors of female receptivity status.
# [2] = system: D. melanogaster females; assay: Receptivity assay, peptide expressed in male accessory glands and transferred to the female during mating; assay type: in vivo, Drosophila melanogaster; conditions: transgene received from male seminal fluid, FIG. 14
# From the text: Transgenic flies. The GAL4-UAS system, first described by Brand and Perrimon (1993), was used for transgenesis of D. melanogaster. Briefly, T-SP was cloned into the pUAST vector, which bears an upstream activating sequence (UAS) site able to bind to the yeast transcription factor GAL4. Two separate fly lines are reared, the one (UAS) bearing the gene(s) to be transcribed and a chosen promoter (target line), the second being the GAL4 activating line. By select and controlled crossing of these two parent lines, the transgene, in this case T-SP or its amino-acid substituted homolog, is activated and expressed in the filial generation, at different times during development, and/or in select tissues, dependent on the promoter and inducer utilized. In this case, the GAL4 gene is under the control of the accessory gland specific promoter 26Aa that is induced only in the accessory glands (Park et al., 1994).
# RT-PCR. Expression was induced by a heat-inducible GAL4 driver (hsp70-GAL4), or with the Acp26Aa GAL4 driver (Acp26Aa-GAL4) which, restricts expression to the male accessory glands exclusively. To verify the expression of T-SP, groups of 10 heat-shocked females were taken at different time post-heat-shock, placed in Eppendorf tubes, quick-frozen in liquid nitrogen and kept at −80° C. until subject to RNA extraction. mRNA extraction was performed with Dynabeads (Invitrogen) according to the manufacturer's instructions.
# as §1, with “details). […]” for “details).”
# [3] = assay type: in vitro ADME, Drosophila melanogaster
# Protocol: Liquid Chromatography—Mass Spectrometery (LC-MS/MS). Hemolymph was prepared as described in section 2.3, except that 50 D. melanogaster female-equivalents of unmated or mated female flies were used for 30 min incubations with 20 μg of T-SP. Reactions were terminated and processed as detailed in section 2.5. The supernatants of the methanol precipitations were lyophilized and resuspended by sonication in 100 μl of loading buffer (5% acetonitrile, 0.1% formic acid) and analyzed by LC-MS/MS. Briefly, the peptide mixtures were run in an Agilent 1100 series micro-flow HPLC system (Agilent Technologies, Inc., Palo Alto, Calif.) coupled to an Esquire-HCT ion trap mass spectrometer through the online nano-ESI ion source (Broker Daltonik GmbH, Bremen). Peptides were separated on a Protein-15-C18-150 microbore column (Micro-Tech Scientific, Cousteau, Court Vista, Calif.) using a 5% to 30% gradient of acetonitrile in 0.1% formic acid for 37 min at […], at a flow rate of 1 μl/min. MS and MS2 spectra were acquired in a data-driven way with parameters optimized for peptide mixture analysis. The resulting MS/MS chromatograms were processed by the DataAnalysis 3.1 application and further analysed with BioTools 2.2 (Broker Daltonik GmbH, Bremen) and MASCOT (Matrix Science), assuming the unknown specificity of the hemolymph protease. A 95% confidence interval was set as threshold. […]
# [4] = system: trypsin activity of mated female hemolymph; assay: Trypsin inhibition assay: cleavage of N-Bnz-R-pna by mated female hemolymph; assay type: biochemical, Drosophila melanogaster; conditions: 20 min pre-incubation, with DTT
# Protocol: Hemolymph sample preparation. Hemolymph from batches of 250 unmated or mated females was extracted 4 days after eclosion as in Lung and Wolfner (1999). Briefly, groups of 5 flies, punctured in the prothorax, were placed head down in chilled Eppendorf tubes (0.5 ml tube pierced in the bottom and inserted into intact 1.5 ml tubes) and centrifuged at 4° C. Tubes were inspected for presence of fat body. Ten μl of 100 mM Tris buffer, pH 8.0, was added to the first tube, and then the collected hemolymph plus Tris from tube 1 was transferred from this tube to the next tube and so on, in to pool hemolymph extracted from unmated or mated female flies.
# Protease and inhibition assays. Protease activity in D. melanogaster female hemolymph was assayed using chromogenic substrates. […]
# Commercial enzymes (response controls of the specific reaction mixture) were dissolved in 100 mM Tris buffer, pH 8.0, at a concentration of 5 μg/μl. […] Activity was recorded as increase in absorbance, due to the release of 4-nitroaniline, as measured using an ELISA reader with 405 nm filter in an ELISA Plate Reader (ELx800, Bio-Tek Instruments). Values are relative absorbance readings, obtained with equal fly-equivalents of hemolymph as source of protease. […] Hemolymph protein content was measured spectroscopically at 280 nm, and was 0.5-1 μg per female. […]
# [5] = system: CA of young unmated female C. capitata; assay: In-vitro synthesis of JHB3 by the corpus allatum; set-up: species or system Ceratitis capitata; conditions: DrmSP with its N-terminal motif
# [6] = mated female hemolymph (50 D. melanogaster female-equivalents); conditions: 37° C., up to 40 min
# [7] = hemolymph extracted from 4-days old mated females, in 100 mM Tris buffer, pH 8.0; conditions: D. melanogaster, 37° C., up to 60 min
# [8] = system: Elastase; assay: Elastase from porcine pancreas in 100 mM Tris buffer, pH 8.0; conditions: 37° C., up to 60 min
# [9] = hsp70-GAL4 driver, FIG. 10, wild-type threshold 4-5 days
# [10] = other independent lines, FIG. 11, n=20
molecule,measurement,setting,value
CC[C@H](C)[C@H](NC(=O)[C@@H]1CCCN1C(=O)[C@H](Cc1ccccc1)NC(=O)[C@H](CCCCN)NC(=O)[C@@H](NC(=O)[C@@H]1CCCN1C(=O)[C@@H](N)CCCCN)[C@@H](C)O)C(=O)N1CCC[C@H]1C(=O)N[C@@H](CO)C(=O)N1CCC[C@H]1C(=O)N[C@@H](CC(N)=O)C(=O)N1CCC[C@H]1C(=O)N[C@@H](CCCNC(=N)N)C(=O)N[C@@H](CC(=O)O)C(=O)N[C@@H](CCCCN)C(=O)N[C@@H](Cc1c[nH]c2ccccc12)C(=O)N[C@H]1CSSC[C@@H](C(=O)O)NC(=O)[C@H](CCCNC(=N)N)NC(=O)CNC(=O)CNC(=O)[C@H](Cc2c[nH]c3ccccc23)NC(=O)[C@H](C)NC(=O)[C@@H]2CCCN2C(=O)CNC(=O)[C@H](CC(C)C)NC(=O)[C@H](CC(N)=O)NC(=O)[C@H](CC(C)C)NC(=O)[C@H](CCCNC(=N)N)NC1=O [T-SP] (H-KPTKFPIPSPNPRDKWCRLNLGPAWGGRC-OH; disulfide 17-29; N-terminus and C-terminus assumed),duration of induced female non-receptivity,[1]; [9],8 days
same,duration of rejection behavior (kicking and extruding ovipositor),[1]; hsp70-GAL4 driver,8 days
same,duration of induced female non-receptivity,[1]; [10],8 days
same,time at which females commenced re-mating after the first mating,[2],three
same,number of different fragments yielded,[3],11
same,number of fragments obtained,[3],five
"Cc1ccc(S(=O)(=O)N[C@@H](CCCCN)C(=O)CCl)cc1.Cl [TLCK, Na-p-Tosyl-L-lysine chloromethyl ketone hydrochloride]",reduced cleavage of N-Bnz-R-pna,[4]; TLCK 1 mM final,40%
DrmSP: Drosophila melanogaster Sex Peptide; mature form a linear peptide of 36 amino acids with an S-S bridge,effect on in-vitro synthesis of JHB3,[5],depresses
KPTKFPIPSPNPRDKWCRLNLGPAWGGRC,cleaved bond,[6],"R25-L26, major, 30 min"
N-Succinyl-Ala-Ala-Ala-pna,not cleaved,[7],elastase activity was not observed
N-Succinyl-Ala-Ala-Pro-Ile-pna,cleaved bond,[7],I-pna
N-Succinyl-Ala-Ala-Pro-Leu-pna,cleaved bond,[7],L-pna
N-Succinyl-Ala-Ala-Val-pna,cleaved bond,[8],V-pna
same,cleaved bond,[7],V-pna
"T-SPQ: T-SP with arginine at position 25 substituted with glutamine, KPTKFPIPSPNPRDKWCQLNLGPAWGGRC (SEQ ID NO: 12); expressed transgenically",duration of induced female non-receptivity,[1]; [9],8 days
same,duration of rejection behavior (kicking and extruding ovipositor),[1]; hsp70-GAL4 driver,8 days
same,duration of induced female non-receptivity,[1]; [10],8 days
same,percentage of re-mating compared with T-SP,[2],lower percentages
same,time at which females commenced re-mating after the first mating,[2],5 days
Z-Gly-Gly-Leu-p-Nitroanilide,not cleaved,[7],Neither chymotrypsin nor subtilisin activity were evident
Bowman-Birk inhibitor (protein) DDESSKPCCDQCACTKSNPPQCRCSDMRLNSCHSACKSCICALSYPAQCFCVDITDFCYEPCKPSEDDKEN,reduced cleavage of N-Bnz-R-pna,[4]; BBI 5 μM final,78%
